Eleven compounds from US9511052B2, “Mineralocorticoid receptor antagonists” (Merck Sharp & Dohme Corp., priority 2012, dated 2016) can be followed below.

The experiment addresses T1, full-length human Mineralocorticoid Receptor (MR) (Homo sapiens, UniProt P08235).
T1 construct: host or cells: PathHunter CHO-K1 MR cells
T1 sequence (P08235 1-984): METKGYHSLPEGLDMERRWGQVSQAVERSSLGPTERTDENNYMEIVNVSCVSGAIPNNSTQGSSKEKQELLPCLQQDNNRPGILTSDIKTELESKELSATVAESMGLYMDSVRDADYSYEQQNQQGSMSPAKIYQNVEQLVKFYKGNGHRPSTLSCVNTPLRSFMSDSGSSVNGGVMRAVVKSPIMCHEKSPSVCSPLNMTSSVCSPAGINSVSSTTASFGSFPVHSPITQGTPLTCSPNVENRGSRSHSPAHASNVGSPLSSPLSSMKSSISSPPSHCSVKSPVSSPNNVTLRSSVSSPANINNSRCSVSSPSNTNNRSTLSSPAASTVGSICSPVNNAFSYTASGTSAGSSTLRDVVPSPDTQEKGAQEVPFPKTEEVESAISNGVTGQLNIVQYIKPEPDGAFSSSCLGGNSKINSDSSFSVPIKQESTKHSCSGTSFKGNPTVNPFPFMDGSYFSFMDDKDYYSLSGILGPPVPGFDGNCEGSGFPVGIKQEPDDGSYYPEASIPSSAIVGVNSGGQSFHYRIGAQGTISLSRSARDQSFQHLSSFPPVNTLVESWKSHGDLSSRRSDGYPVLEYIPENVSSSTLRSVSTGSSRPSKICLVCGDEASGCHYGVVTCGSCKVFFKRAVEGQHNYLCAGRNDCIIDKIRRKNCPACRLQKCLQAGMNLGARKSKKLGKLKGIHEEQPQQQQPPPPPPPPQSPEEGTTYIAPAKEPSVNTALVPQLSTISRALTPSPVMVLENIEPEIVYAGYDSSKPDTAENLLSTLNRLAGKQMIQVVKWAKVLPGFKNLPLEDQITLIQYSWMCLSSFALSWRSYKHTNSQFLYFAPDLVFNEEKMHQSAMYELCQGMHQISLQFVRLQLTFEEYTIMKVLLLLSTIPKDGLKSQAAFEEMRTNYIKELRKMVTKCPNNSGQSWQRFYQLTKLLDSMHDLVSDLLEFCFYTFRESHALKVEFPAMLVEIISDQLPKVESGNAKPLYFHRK
Briefly: human MR NH Pro assay (PathHunter Protein:Protein interaction assay), MR antagonism. Type of experiment: cell-based. The following applies: IP = inflection point of the dose-response curve; CHO-K1 cells overexpressing human MR, aldosterone about 0.3 nM to about 1 nM, 6 hours at 37° C. The text has this: The activity of the compounds of the present invention regarding mineralocorticoid receptor antagonism can be evaluated using the following assay.
Assessment of MR Potency in HMR NH Pro Assay
The human MR NH Pro assay is a commercially available PathHunter™ Protein:Protein interaction assay (DiscoveRx; http://www.discoverx.com/nhrs/prod-nhrs.php) that measures the ability of compounds to antagonize full-length human Mineralocorticoid Receptor (MR) binding to a coactivator peptide.
Stock solution was prepared at 10 μM in DMSO and stored at −20° C. for assay, dilute in assay media to 1.8 or 6 nM (6× of final concentration=about 0.3 nM to about 1.0 nM)
5. Cell line: PathHunter CHO-K1 MR cells Cat #93-0456C2, Lot No: 09B0913, from operation liquid nitrogen stock.
6. Control Antagonist: Spironolactone: Sigma #S-3378 and Eplerenone Sigma #107724-20-9 (10 mM stock concentration also prepared in DMSO and stored at −20° C.).
1. Cells are grown in F12+FBS+Hygromycin+pen/strep+Genetin
2. Cells are collected with 0.05% trypsin and the cell suspension is spun and resuspended in a volume of F12+1.5% CD-FBS and counted.
3. The cells concentration was adjusted to 4×10^5 cells/mL.
4. Cells were (25 μL/well) added to the wells of a 384 well plate.
5. The plate was then incubated at 37° C. over night in a humidified incubator with 5% CO2.
6. Test compounds were titrated starting at 4.4 mM, 10-point titration in 1:3 dilution.
Protocol for 384 well plate format: 6 hr treatment:
1. 10K exponentially growing cells/well (25 μL) were resuspended in assay media and plated into each well using the Multidrop (Thermo Electron) (use white wall, clear bottom assay plates (Costar #3570) and incubated overnight at 37° C., 5% CO2.
2. 0.25 μL 120× test compound (final DMSO concentration should be <1%) was added to each well n=2, 10 point titrations starting at 36.7 μM final concentration.
4. 5 μL of assay media was added to all wells in column 23 and 24.
5. Cells were then incubated for 6 hrs at 37° C., 5% CO2.
6. 15 μL 3× DiscoveRx detection reagent was then added to each well.
7. Plates were incubated for 1 hour at room temperature in the dark.
8. Plates were read on Envision (PerkinElmer) luminesence plate reader and analyzed using ADA.
Broadly, the IC50 is the concentration at which inhibition is half-maximal. Read a high IC50 as a need for much substance. Compound `CCC(O)C(CC)(c1ccc(S(F)(F)(F)(F)F)cc1)n1ncc2c(NS(C)(=O)=O)cccc21` (single isomer, unassigned) [Compound 25, N-(1-{4-hydroxy-3-[4-(pentafluoro-λ^6-sulfanyl)phenyl]hexan-3-yl}-1H-indazol-4-yl)methanesulfonamide] registered an IC50 of 0.048 µM.
The result for `CCC(O)C(CC)(c1ccc(S(F)(F)(F)(F)F)cc1)n1ncc2c(NS(C)(=O)=O)cccc21` (single isomer, unassigned) [Compound 26, N-(1-{4-hydroxy-3-[4-(pentafluoro-λ^6-sulfanyl)phenyl]hexan-3-yl}-1H-indazol-4-yl)methanesulfonamide] reads 1.13 µM.
In turn, `CCC(c1ccc(C(F)(F)F)cc1)(C(C)O)n1ncc2c(NS(C)(=O)=O)cc(F)cc21` (single isomer, unassigned) [Compound 32, N-(6-fluoro-1-(2-hydroxy-3-(4-(trifluoromethyl)phenyl)pentan-3-yl)-1H-indazol-4-yl)methanesulfonamide] registered an IC50 of 0.027 µM.
The result for `CCC(c1ccc(C(F)(F)F)cc1)(C(C)O)n1ncc2c(NS(C)(=O)=O)cc(F)cc21` (single isomer, unassigned) [Compound 33, N-(6-fluoro-1-(2-hydroxy-3-(4-(trifluoromethyl)phenyl)pentan-3-yl)-1H-indazol-4-yl)methanesulfonamide] reads 1.11 µM; that for `CCC(c1ccc(C(F)(F)F)cc1)(C(C)O)n1ncc2c(NS(C)(=O)=O)cc(F)cc21` (single isomer, unassigned) [Compound 34, N-(6-fluoro-1-(2-hydroxy-3-(4-(trifluoromethyl)phenyl)pentan-3-yl)-1H-indazol-4-yl)methanesulfonamide], 1.14 µM; that for `CC(O)C(CC(F)F)(c1ccc(C(F)(F)F)cc1)n1ncc2c(NS(C)(=O)=O)cccc21` (single isomer, unassigned) [Compound 36, N-(1-(1,1-difluoro-4-hydroxy-3-(4-(trifluoromethyl)phenyl)pentan-3-yl)-1H-indazol-4-yl)methanesulfonamide], 0.095 µM.
`CC(O)C(CC(F)F)(c1ccc(C(F)(F)F)cc1)n1ncc2c(NS(C)(=O)=O)cccc21` (single isomer, unassigned) [Compound 38, N-(1-(1,1-difluoro-4-hydroxy-3-(4-(trifluoromethyl)phenyl)pentan-3-yl)-1H-indazol-4-yl)methanesulfonamide] displayed an IC50 of 0.596 µM.
`CCC(O)C(CC(F)F)(c1ccc(C(F)(F)F)cc1)n1ncc2c(NS(C)(=O)=O)cccc21` (single isomer, unassigned) [Compound 39, N-(1-(1,1-difluoro-4-hydroxy-3-(4-(trifluoromethyl)phenyl)hexan-3-yl)-1H-indazol-4-yl)methanesulfonamide] had an IC50 of 0.023 µM.
As to `CCC(O)C(CC(F)F)(c1ccc(C(F)(F)F)cc1)n1ncc2c(NS(C)(=O)=O)cccc21` (single isomer, unassigned) [Compound 40, N-(1-(1,1-difluoro-4-hydroxy-3-(4-(trifluoromethyl)phenyl)hexan-3-yl)-1H-indazol-4-yl)methanesulfonamide], the IC50 came to 0.015 µM.
The compound `CCC(O)C(CC(F)F)(c1ccc(C(F)(F)F)cc1)n1ncc2c(NS(C)(=O)=O)cccc21` (single isomer, unassigned) [Compound 41, N-(1-(1,1-difluoro-4-hydroxy-3-(4-(trifluoromethyl)phenyl)hexan-3-yl)-1H-indazol-4-yl)methanesulfonamide] had an IC50 of 0.543 µM.
On to `CCC(O)C(CC(F)F)(c1ccc(C(F)(F)F)cc1)n1ncc2c(NS(C)(=O)=O)cccc21` (single isomer, unassigned) [Compound 42, N-(1-(1,1-difluoro-4-hydroxy-3-(4-(trifluoromethyl)phenyl)hexan-3-yl)-1H-indazol-4-yl)methanesulfonamide], for which the IC50 was 1.37 µM.
